Experimental data as given in US20080161232A1, “C5a Receptor Antagonist” (JERINI AG, priority 2005, published 2008).
Where two headings read alike, the source gives them in different places. Positions of bridges follow the written chain, without caps; N, C: chain ends. Non-standard residues stand in square brackets, D forms with d. Residues, ends and D or L forms follow the SMILES beside them. Bta = N[C@@H](Cc1csc2ccccc12)C(=O)O; Hyp = O=C(O)[C@@H]1C[C@@H](O)CN1; d(hLeu) = CC(C)CC[C@@H](N)C(=O)O; dCha = N[C@H](CC1CCCCC1)C(=O)O; Orn = NCCC[C@H](N)C(=O)O

Experiments:
[1] = Solubility determination for selected C5aR-antagonists; type: physicochemical; details: for Solubility in 20 mM HEPES pH 7.4 (% of 200 μM): 20 mM HEPES pH 7.4, 24 h at RT
Procedure: Solubility Determination for Selected C5aR-Antagonists
[…] The undissolved part was removed by centrifugation after 24 h. The UV-absorption of the supernatant was measured and compared to a reference solution of the compound in 60% MeOH.

C5aR [2] = biological target: T1, C5aR (Homo sapiens, UniProt P21730); details: compound numbers of WO 03/033528; read-out: antagonistic activity, WO 03/033528; cited from earlier work
T1 construct: measurements with isolated membranes from polymorphonuclear neutrophilic granulocytes (PMN membranes); host or cells: isolated PMN membranes (endogenous receptor)
T1 sequence (P21730 1-350): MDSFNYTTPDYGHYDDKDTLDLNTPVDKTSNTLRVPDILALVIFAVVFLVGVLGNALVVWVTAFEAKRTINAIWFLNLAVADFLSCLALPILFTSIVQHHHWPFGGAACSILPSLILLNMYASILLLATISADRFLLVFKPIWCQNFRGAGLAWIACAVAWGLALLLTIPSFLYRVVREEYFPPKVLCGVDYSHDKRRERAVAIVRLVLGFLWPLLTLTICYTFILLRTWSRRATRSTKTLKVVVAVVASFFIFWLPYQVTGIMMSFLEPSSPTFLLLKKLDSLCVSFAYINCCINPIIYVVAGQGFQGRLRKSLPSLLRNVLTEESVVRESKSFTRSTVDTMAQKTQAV

C5aR [3] = biological target: T1, C5aR; details: compound numbers of WO 03/033528; read-out: IC50 as a measure for affinity, WO 03/033528; cited from earlier work
human C5aR(CD88) [4] = biological target: T2, human C5aR(CD88) (Homo sapiens, UniProt P21730); assay: Determination of the IC50 value in an enzyme release assay (functional assay, antagonistic activity); type: cell-based; details: for inhibitory activity (in words): functional assay of example 11, noteworthy = IC50 less than 200 nM
T2 construct: expressed in transfected cells; host or cells: rat basophilic leukemia cells (RBL)
T2 sequence (P21730 1-350): T1 sequence (P21730 1-350)

human C5aR(CD88) [5] = biological target: T2, human C5aR(CD88); assay: Determination of EC50-values in an enzyme release assay (agonistic activity); type: cell-based; details: for agonistic activity (in words): cellular assay, up to a concentration of at least 1430 nM
Procedure: The assay procedure was described by Kohl (Kohl 1997 The Anaphylatoxins. In: Dodds, A. W., Sim, R. B. (Eds.), Complement: A Practical Approach. Oxford, pp. 135-163). Basophilic leukemia cells from rats (RBL), which express the human C5aR(CD88), were cultivated in DMEM with 10% fetal bovine serum, 100 U/ml penicillin, 100 μg/ml streptomycin and 2 mM glutamine (all components of the media from Biochrome, Berlin) to confluence at 37° C. and 10% CO2. The following specifications refer to single cell culture flask having a surface of 75 cm^2. Medium was decanted from cells. Cells were washed with 10 ml PBS (Dulbecco's PBS, Biochrome) and subsequently overlayed with 3 ml Cell Dissociation Solution (CDS, Sigma). Cells were incubated for 1 min at room temperature. Subsequently, CDS was removed and the cells were further incubated for 10-15 min at 37° C. for dissociation. In the assay, 20 μl of the solution containing the compound to be tested were used. This solution should not contain more than 2.8% DMSO. For the dilution process, the compounds were diluted in ⅓ or ½ steps. To 20 μl compound solution 75 μl of the RBL-cells were added, which were treated as follows: after dissociation cells were detached and warmed at 37° C. in 10 ml HAG-CM (20 mM HEPES; 125 mM NaCl, 5 mM KCl, 1 mM CaCl2, 1 mM MgCl2, 0,5 mM Glucose, 0,25% BSA. HEPES-preparation: 2.3 g/l HEPES-salt +2.66 g/l HEPES acid). Cells were counted and centrifuged (200×g, 10 min). The cell pellet was resuspended in preheated HAG-CM (i.e. Hepes-buffer NaCl-glucose-solution with calcium and magnesium), and the cell density was adjusted to 2×10^6 cells/ml. The cells were incubated at 37° C. for 5 min. Per ml cell suspension 27 μl of a cytochalasin B-solution were added (100 μg/ml in DMSO, Sigma). The cells were incubated for further 3 min at 37° C. 75 μl of the cell suspension were added to 20 μl compound solution leading to a volume of 95 μl per well. After incubation of the cells for 10 min at 37° C. 10 μl hrC5a (10.5 nM in HAG-CM, Sigma) per well were added. The cells were incubated for additional 5 min at 37° C. The mtp was then transferred to ice and centrifuged for 3 min at 4° C. with 1200×g. 75 μl of the supernatant were added to 100 μl substrate-solution (2.7 mg/ml p-nitrophenyl-N-acetyl-β-D-glucosaminide (Sigma) in 42.5 mM Na-acetate pH 4.5). The mtp was incubated for further 60 min at 37° C. 75 μl 0.4 M glycine pH 10.4 were added per well. The mtp was transferred into a reader and the absorption at 405 nm was measured. IC50-values were obtained following the equation; y=((A-D)/(1+(x/C)^B))+D.
Determination of EC50-Values in an Enzyme Release Assay
The determination of EC50-values was performed according to the procedure given in example II, with the exception that 30 μl of the test compound need to be mixed with 75 μl of the cell suspension mentioned in example 11. Neither preincubation nor addition of C5a for stimulation of enzyme release is needed.

[6] = Measurement of the AB-permeability in a TC-7 based assay-system; type: in vitro ADME; details: human
Procedure: Measurement of the AB-Permeability in a TC-7 Based Assay-System The screening compounds are diluted to a 50 μM solution in HBSS-MES (5 mM, pH 6.5) from 10 mM stock solution in 100% DMSO. ^14C-mannitol (approx. 4 μM) is added to the sample. The solution is centrifuged and the supernatant is added to the apical side of the TC-7 cell culture (passage 15, in 24 well transwell plate) to a final DMSO-concentration of 1%. HBSS-HEPES (5 mM, pH 7.4) is placed at the basolateral side. The cells were incubated for 120 min at 37° C.

Wistar rats = assay: Model of C5a induced neutropenia; type: in vivo; details: i.v. infusion 10 min before 2 μg/kg hr C5a i.v., FIG. 2
Excerpt: Efficacy of compound 149 in a model of C5a induced neutropenia
C5a induced neutropenia is a model for shock induced diseases (e.g. septic shock), where the systemic role of C5a (neutropenia, blood pressure decrease) plays an important role. The reason for the decrease of the neutrophils in the circulation is their binding to the vessel walls due to the C5a stimulus. These processes of neutrophil recruitment are playing an important role in many other diseases like reperfusion injury. This model was also described by Short et al. (1999 British Journal of Pharmacology 125: 551-554).
Female Wistar rats were treated i.p. with ketamine (80 mg/kg) and xylazine (12 mg/kg). A catheter was introduced in the jugular vein and the animals were subjected to the following procedure:
1. Rats were treated with vehicle or compounds according to the invention like compound 149 via i.v. infusion. A blood sample was taken one minute before compound treatment. 2. 10 min after compound infusion rats were treated with 2 μg/kg hr C5a i.v. (2 μg/kg over 1 min). […]
White blood cell count was measured with a haematology-cell-counter. […]
The differential cell count was determined as the sum of neutrophils, eosinophils, basophils, lymphocytes and monocytes of 100 cells. Then the percentage of the neutrophils in relation to all white blood cells was calculated.

BALB/c mice = assay: Model of immune complex mediated peritonitis (reverse passive Arthus reaction); type: in vivo; details: 1 mg/kg i.v. 15 min before Arthus reaction, lavage after 6 h, FIG. 1
Excerpt: Efficacy of compound 149 in a model of immune complex mediated peritonitis
Immune complex mediated peritonitis resembles the pathological conditions of immune complex related diseases like vasculitis, nephritis, arthritis, and farmer's disease. The associated animal model was described by Heller et al. (1999 Journal of Immunology 163: 985-994) and takes advantage of the pro-inflammatory effects of immune complexes formed after i.v. administration of the antigen and i.p. administration of the antibody.
BALB/c mice (6-8 weeks old) were treated i.v. with compound 149 (1 mg/kg bodyweight in 200 μl vehicle) 15 min before the initiation of the reverse passive Arthus reaction. Arthus reaction was induced through the administration of OVA (20 mg/kg i.v. in 200 μl PBS) and polyclonal anti-OVA Ab (rabbit; 800 μg/Maus i.p). After 6 h a peritoenal lavage with 2 ml PBS 0.1% BSA was done. The collected PE-cells were stained with DIFF-Quick. At least 20 visual fields (100× magnification) were analyzed for the presence of neutrophils.

human PMNs = details: cellular myeloperoxidase release assay with human PMNs; read-out: IC50 (antagonistic activity), WO 99/00406; cited from earlier work
[7] = antagonistic activity, IC50 group in enzyme release assay, RBL cells expressing human C5aR(CD88), read-out: activity (group)

| Molecule | Solubility in 20 mM HEPES pH 7.4 (% of 200 μM) [1] | solubility in aqueous HEPES buffer (pH 7.4) [1] | IC50 (C5aR [3]) | IC50 (human C5aR(CD88) [4]; [7]) | inhibitory activity (in words) (human C5aR(CD88) [4]) | agonistic activity (in words) (human C5aR(CD88) [5]) | Papp A→B at 120 min, 50 μM ([6]; Caco-2, values in text) | also measured |
| --- | --- | --- | --- | --- | --- | --- | --- | --- |
| CC(=O)N[C@@H](Cc1ccccc1)C(=O)N[C@H]1CCCNC(=O)[C@H](Cc2ccccc2)NC(=O)[C@H](Cc2c[nH]c3ccccc23)NC(=O)[C@@H](CC2CCCCC2)NC(=O)[C@@H]2CCCN2C1=O [Compound 1, Ac-Phe-[Orn-Pro-cha-Trp-Phe]] (Ac-F[Orn]P[dCha]WF; lactam 2-C) | 8 % of 200 μM | 8% | 450 nM | 20 to 50 nM | without significant loss of activity | pure antagonists |  | IC50 (C5aR [2]): 28 nM; IC50 (human C5aR(CD88) [4]; functional assay of example 11, values in text, read-out: IC50): 23 nM; inhibitory activity (in words) (human C5aR(CD88) [4]; listed as Ac-Phe-[Orn-Pro-cha-Trp-Phe]): noteworthy inhibitory activity; EC50 (human C5aR(CD88) [5]; agonistic activity, no C5a added, read-out: EC50): > 1430 nM |
| CC(=O)N[C@@H](Cc1ccccc1)C(=O)N[C@H]1CCCNC(=O)[C@H](Cc2ccccc2)NC(=O)[C@H](Cc2c[nH]c3ccccc23)NC(=O)[C@@H](CC2CCCCC2)NC(=O)[C@@H]2C[C@@H](O)CN2C1=O [Compound 2, Ac-Phe-[Orn-Hyp-cha-Trp-Phe]] (Ac-F[Orn][Hyp][dCha]WF; lactam 2-C) | 13 % of 200 μM | 13% |  | 20 to 50 nM | noteworthy inhibitory activity | pure antagonists | 14.3 ×10⁻⁶ cm/s | Papp A→B at 120 min, 50 μM ([6]; Caco-2, TC-7 cells, 50 μM, apical pH 6.5, basolateral pH 7.4, 120 min at 37° C.): 14.2 ×10⁻⁶ cm/s; EC50 (human C5aR(CD88) [5]): > 1430 nM |
| CC(=O)N[C@@H](Cc1ccccc1)C(=O)N[C@@H](CCCN)C(=O)N1CCC[C@H]1C(=O)N[C@H](CCC(C)C)C(=O)N[C@@H](Cc1csc2ccccc12)C(=O)N[C@@H](Cc1ccccc1)C(N)=O [Compound 149, Ac-Phe-Orn-Pro-hle-Bta-Phe-NH2] (Ac-F[Orn]P[d(hLeu)][Bta]F-NH2) |  |  |  | 10 to 20 nM | noteworthy inhibitory activity | pure antagonists |  | C5a-induced neutropenia (percentage of neutrophils over time) (Wistar rats): reduces the C5a-induced neutropenia remarkable; influx of neutrophils / pro-inflammatory cells into the peritoneum (BALB/c mice): reduction of the influx of pro-inflammatory cells into the peritoneum |
| CC(C)NCC(O)COc1cccc2ccccc12 (stereo not drawn) [Propanolol, reference compound] |  |  |  |  |  |  | 31.1 ×10⁻⁶ cm/s |  |
| CC(=O)N[C@@H](Cc1ccccc1)C(=O)N[C@H]1CCCNC(=O)[C@H](CCCNC(=N)N)NC(=O)[C@H](Cc2c[nH]c3ccccc23)NC(=O)[C@@H](C)NC(=O)[C@@H]2CCCN2C1=O [compound 47] |  |  | 24000 nM | > 2000 nM |  |  |  |  |
| Me-Phe-Lys-Pro-cha-Trp-arg |  |  |  |  |  |  |  | IC50 (human PMNs): 85 nM |
